Columns and labels:
[1] = target: Sigma non-opioid intracellular receptor 1 (Cavia porcellus, UniProt Q60492); experiment: Displacement of [3H]-(+)-pentazocine from sigma1 receptor in guinea pig brain membrane after 150 mins by scintillation counting analysis; assay type: cell membranes
[2] = Displacement of [3H]DTG from sigma2 receptor in guinea pig brain membrane after 120 mins by scintillation counting analysis; assay type: cell membranes, Cavia porcellus
[3] = organism: Cavia porcellus; experiment: Selectivity ratio of Ki for guinea pig brain sigma2 receptor to Ki for guinea pig brain sigma1 receptor
[4] = target: Sodium-dependent dopamine transporter (Mus musculus) (UniProt Q61327); experiment: […] from mouse DAT in striatal membranes at 10000 nM; assay type: cell membranes; settings: Striatum, Membrane
[5] = target: Sodium-dependent serotonin transporter (Mus musculus, UniProt Q60857); experiment: Displacement of [3H]paroxetine from mouse SERT in whole brain membrane; assay type: cell membranes
[6] = Selectivity ratio of Ki for mouse DAT to Ki for guinea pig brain sigma1 receptor
[7] = Selectivity ratio of Ki for mouse SERT to Ki for guinea pig brain sigma1 receptor
[8] = target: Sodium-dependent dopamine transporter (Mus musculus, UniProt Q61327); experiment: Displacement of [3H]RTI-121 from mouse DAT in striatal membranes; assay type: cell membranes, Striatum, Membrane
Sodium-dependent dopamine transporter, sequence (Q61327 whole entry): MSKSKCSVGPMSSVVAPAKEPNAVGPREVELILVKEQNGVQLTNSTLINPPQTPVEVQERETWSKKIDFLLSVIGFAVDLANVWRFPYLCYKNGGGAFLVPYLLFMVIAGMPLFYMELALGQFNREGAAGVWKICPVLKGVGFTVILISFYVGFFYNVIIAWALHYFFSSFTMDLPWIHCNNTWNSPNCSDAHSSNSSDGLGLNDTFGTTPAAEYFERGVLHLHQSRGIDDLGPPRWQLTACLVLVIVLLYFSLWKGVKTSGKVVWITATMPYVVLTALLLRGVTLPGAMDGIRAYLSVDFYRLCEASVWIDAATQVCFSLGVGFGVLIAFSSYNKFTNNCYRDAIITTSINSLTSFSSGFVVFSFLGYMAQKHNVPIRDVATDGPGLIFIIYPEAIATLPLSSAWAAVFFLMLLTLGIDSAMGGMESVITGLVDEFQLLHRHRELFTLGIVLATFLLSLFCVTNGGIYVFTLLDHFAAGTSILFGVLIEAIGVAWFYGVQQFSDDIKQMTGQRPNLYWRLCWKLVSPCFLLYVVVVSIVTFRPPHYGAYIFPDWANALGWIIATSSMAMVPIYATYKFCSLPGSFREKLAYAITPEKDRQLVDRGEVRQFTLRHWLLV

Sodium-dependent dopamine transporter (Mus musculus), sequence (Q61327 whole entry): as above
Sigma non-opioid intracellular receptor 1, sequence (Q60492 whole entry): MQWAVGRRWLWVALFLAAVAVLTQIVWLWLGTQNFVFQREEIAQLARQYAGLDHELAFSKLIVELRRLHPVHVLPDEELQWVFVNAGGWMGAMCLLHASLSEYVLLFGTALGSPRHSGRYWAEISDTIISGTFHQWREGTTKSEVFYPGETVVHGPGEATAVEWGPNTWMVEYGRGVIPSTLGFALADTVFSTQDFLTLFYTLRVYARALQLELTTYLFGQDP
Sodium-dependent serotonin transporter, sequence (Q60857 whole entry): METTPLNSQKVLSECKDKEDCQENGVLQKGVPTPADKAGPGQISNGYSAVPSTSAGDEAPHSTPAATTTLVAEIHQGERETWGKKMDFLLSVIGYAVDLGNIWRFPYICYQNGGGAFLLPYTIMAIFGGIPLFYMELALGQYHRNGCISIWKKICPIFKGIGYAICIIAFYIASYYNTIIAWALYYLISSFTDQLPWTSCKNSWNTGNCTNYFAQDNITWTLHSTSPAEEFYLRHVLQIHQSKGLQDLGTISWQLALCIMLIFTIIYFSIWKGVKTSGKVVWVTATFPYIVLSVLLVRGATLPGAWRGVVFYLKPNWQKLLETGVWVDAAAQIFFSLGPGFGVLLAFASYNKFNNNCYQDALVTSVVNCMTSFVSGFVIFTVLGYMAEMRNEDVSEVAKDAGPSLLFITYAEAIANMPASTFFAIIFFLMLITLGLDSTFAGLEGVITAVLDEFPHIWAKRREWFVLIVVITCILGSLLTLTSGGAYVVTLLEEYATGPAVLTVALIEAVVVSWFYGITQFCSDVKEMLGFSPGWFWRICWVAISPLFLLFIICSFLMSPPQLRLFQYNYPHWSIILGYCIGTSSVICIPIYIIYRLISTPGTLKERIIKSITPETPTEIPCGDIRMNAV

COc1cc(CCN2CCN(CCCc3ccccc3)CC2)ccc1OCc1ccccc1
Ki [1]: 20.8 nM
Ki [2]: 16.4 nM
Ratio Ki [3]: 0.8
Inhibition % [4]: 93%
Ki [5]: 128 nM
Ratio Ki [6]: 6
Ratio Ki [7]: 6.2
Ki [8]: 121 nM

Clc1ccc(CCN2CCN(CCCc3ccccc3)CC2)cc1Cl
Ki [1]: 2.2 nM
Ki [2]: 38.8 nM
Ki [5]: 2860 nM

COc1cc(CCN2CCN(CCCc3ccccc3)CC2)ccc1OCCCc1ccccc1
Ki [1]: 18.4 nM
Ki [2]: 23.3 nM
Ratio Ki [3]: 1.3
Inhibition % [4]: 97%
Ratio Ki [6]: 5
Ki [8]: 87 nM

COc1cc(CCN2CCN(CCCc3ccccc3)CC2)ccc1OCF
Ki [1]: 6.4 nM
Ki [2]: 250 nM
Ratio Ki [3]: 39
Inhibition % [4]: 19%

CCCOc1ccc(CCN2CCN(CCCc3ccccc3)CC2)cc1OC
Ki [1]: 25.6 nM
Ki [2]: 33.4 nM
Ratio Ki [3]: 1.3
Inhibition % [4]: 43%
Ki [5]: 124 nM
Ratio Ki [6]: 71
Ratio Ki [7]: 4.8
Ki [8]: 1820 nM

COc1cc(CCN2CCN(CCCc3ccccc3)CC2)ccc1O
Ki [1]: 1.75 nM
Ki [2]: 6.72 nM
Ratio Ki [3]: 3.8

COc1cc(CCN2CCN(CCCc3ccccc3)CC2)ccc1OCCBr
Ki [1]: 25.4 nM
Ki [2]: 27.1 nM
Ratio Ki [3]: 1.1
Inhibition % [4]: 38%

c1ccc(CCCN2CCN(CCc3ccc4c(c3)OCCCO4)CC2)cc1
Ki [1]: 19.1 nM
Ki [2]: 52.1 nM
Ratio Ki [3]: 2.7
Inhibition % [4]: 43%

COc1cc(CCN2CCN(CCCc3ccccc3)CC2)ccc1OCCc1ccccc1
Ki [1]: 13.3 nM
Ki [2]: 16.6 nM
Ratio Ki [3]: 1.2
Inhibition % [4]: 89%

COc1cc(CCN2CCN(CCCc3ccccc3)CC2)ccc1OC/C=C\I
Ki [1]: 10.7 nM
Ki [2]: 16.7 nM
Ratio Ki [3]: 1.6
Inhibition % [4]: 94%
Ratio Ki [6]: 22
Ki [8]: 237 nM

COc1cc(CCN2CCN(CCCc3ccccc3)CC2)ccc1OCCF
Ki [1]: 8.03 nM
Ki [2]: 113 nM
Ratio Ki [3]: 14.1
Inhibition % [4]: 23%

COc1ccc(CCN2CCN(CCCc3ccccc3)CC2)cc1
Ki [1]: 1.3 nM
Ki [2]: 28.6 nM
Ratio Ki [3]: 22
Ki [5]: 1730 nM
Ratio Ki [6]: 1130
Ratio Ki [7]: 1330
Ki [8]: 1470 nM

COc1ccccc1CCN1CCN(CCCc2ccccc2)CC1
Ki [2]: 7.5 nM

COc1ccc(CCN2CCN(CCCc3ccccc3)CC2)cc1OC [[11C]SA4503]
Ki [2]: 63.1 nM
Ki [5]: 760 nM

C=CCOc1ccc(CCN2CCN(CCCc3ccccc3)CC2)cc1OC
Ki [1]: 30.1 nM
Ki [2]: 42.1 nM
Ratio Ki [3]: 1.4
Inhibition % [4]: 44%
Ki [5]: 295 nM
Ratio Ki [6]: 69
Ratio Ki [7]: 9.8
Ki [8]: 2080 nM

COc1cc(CCN2CCN(CCCc3ccccc3)CC2)ccc1OC/C=C/I
Ki [1]: 16.9 nM
Ki [2]: 18.2 nM
Ratio Ki [3]: 1.1
Inhibition % [4]: 69%
Ki [5]: 174 nM
Ratio Ki [6]: 33
Ratio Ki [7]: 10.3
Ki [8]: 560 nM

COc1cccc(CCN2CCN(CCCc3ccccc3)CC2)c1
Ki [1]: 1.4 nM
Ki [2]: 10.2 nM
Ratio Ki [3]: 7.3
Ki [5]: 985 nM
Ratio Ki [6]: 1010
Ratio Ki [7]: 703
Ki [8]: 1410 nM

c1ccc(CCCN2CCN(CCc3ccc4c(c3)OCCO4)CC2)cc1
Ki [1]: 10.2 nM
Ki [2]: 35.2 nM
Ratio Ki [3]: 3.4
Inhibition % [4]: 33%

c1ccc(CCCN2CCN(CCc3ccc4c(c3)OCO4)CC2)cc1
Ki [1]: 2.55 nM
Ki [2]: 14.8 nM
Ratio Ki [3]: 5.8
Inhibition % [4]: 42%
Ki [5]: 468 nM
Ratio Ki [6]: 721
Ratio Ki [7]: 184
Ki [8]: 1840 nM

From ChEMBL document CHEMBL3352167 (Bioorg Med Chem, 2015)
